This is an account of results in article PMC8163982, “Partial agonism improves the anti-hyperglycaemic efficacy of an oxyntomodulin-derived GLP-1R/GCGR co-agonist” (Molecular Metabolism, 2021).

Series [1] can be described thus: Pharmacokinetic study in mice (plasma radioimmunoassay). The class given is in vivo, mouse. Conditions: 0.5 mg/kg IP. As for the experimental part:
The mice were administered 0.5 mg/kg of peptide via IP injection. Four h after injection, blood was acquired by venesection into lithium heparin-coated microvette tubes (Sarstedt, Germany). In a separate study, male Sprague Dawley rats (average weight 250 g, obtained from Charles River) were administered 4 mg/kg of peptide SC mixed in aqueous ZnCl2 solution to a molar ratio of 0.7:1 (peptide:ZnCl2), and blood was collected by venesection at several time points up to 72 h. Plasma was separated by centrifugation at 10,000 g for 8 min at 4 °C. Plasma concentrations were assessed by radioimmunoassay using an in-house assay as previously described using standard curves generated from each SRB103 peptide to ensure that equivalent recovery was obtained.

The target in another series is T1, human GIPR (Homo sapiens, UniProt P48546).
T1 construct: host or cells: PathHunter CHO-K1-βarr2-EA
T1 sequence (P48546 22-466): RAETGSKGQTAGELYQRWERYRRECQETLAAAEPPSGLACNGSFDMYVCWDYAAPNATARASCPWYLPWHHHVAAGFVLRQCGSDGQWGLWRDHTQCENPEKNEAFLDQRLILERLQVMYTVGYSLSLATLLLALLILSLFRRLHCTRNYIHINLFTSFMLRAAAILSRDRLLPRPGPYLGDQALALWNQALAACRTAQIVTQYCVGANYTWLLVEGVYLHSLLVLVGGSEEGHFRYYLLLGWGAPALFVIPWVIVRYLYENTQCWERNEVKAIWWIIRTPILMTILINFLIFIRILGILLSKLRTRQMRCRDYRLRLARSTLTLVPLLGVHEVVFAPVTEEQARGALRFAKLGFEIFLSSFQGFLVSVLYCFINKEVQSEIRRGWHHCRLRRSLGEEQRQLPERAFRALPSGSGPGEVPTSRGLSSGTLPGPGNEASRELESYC
In words: cAMP production (HTRF) in PathHunter CHO-K1 cells expressing GIPR. The conditions noted are these: 30 min, mean ± SEM, n = 6; for EC50: 37 °C, serum-free medium, no phosphodiesterase inhibitors, read-out: GIPR CAMP (CHO–K1) pEC50 (converted); for Emax: CHO-K1, normalised to globally fitted maximum response. The class given is cell-based. As for the experimental part:
HEK293T cells were maintained in DMEM supplemented with 10% FBS and 1% penicillin/streptomycin. PathHunter CHO–K1-βarr2-EA cells stably expressing human GLP-1R, GCGR, or GIPR and PathHunter CHO–K1-βarr1-EA cells stably expressing GCGR were obtained from DiscoverX and maintained in Ham's F12 medium with 10% FBS and 1% penicillin/streptomycin. Stable HEK293-SNAP-GLP-1R cells were maintained in DMEM supplemented with 10% FBS, 1% penicillin/streptomycin, and 1 mg/ml of G418. INS-1 832/3 cells, a gift from Professor Chris Newgard (Duke University), were maintained in RPMI with 11 mM of glucose supplemented with 10% FBS, 10 mM of HEPES, 1 mM of pyruvate, 50 μM of β-mercaptoethanol, and 1% penicillin/streptomycin. Huh7 cells stably expressing human GCGR (Huh7-GCGR) were maintained in DMEM supplemented with 10% FBS, 1 mg/ml of G418, and 1% penicillin/streptomycin.
PathHunter cells were stimulated with the indicated concentration of agonist for 30 min at 37 °C in serum-free medium without phosphodiesterase inhibitors. INS-1 832/3 cells were stimulated with the indicated concentration of agonist for 10 min at 37 °C in serum-free medium with 100 μM of 3-isobutyl-1-methylxanthine (IBMX). Primary dispersed mouse islet cells prepared by triturating intact islets in 0.05% trypsin/EDTA for 3 min at 37 °C were stimulated with the indicated concentration of agonist for 5 min at 37 °C in serum-free medium with 11 mM of glucose and 500 μM of IBMX. Primary mouse hepatocytes were stimulated in serum-free medium with 100 μM of IBMX for 10 min or 16 h in serum-free medium with 100 μM of IBMX added for the final 10 min of incubation. Huh7-GCGR cells were stimulated in serum-free medium without phosphodiesterase inhibitors for 10 min or for 16 h in serum-free medium. Where relevant, forskolin (10 μM) was added as a positive or normalisation control. At the end of each incubation, cAMP was then assayed by HTRF (Cisbio cAMP Dynamic 2) and concentration-response curves were constructed with 3-parameter curve fitting using Prism 8.0.

The target in the next series is GLP-1R (Homo sapiens, UniProt P43220). In words: NanoBiT mini-Gs recruitment to GLP-1R-SmBiT in HEK293T cells. Conditions: SRB103 pair, mean ± SEM, n = 6. The class given is cell-based. The procedure: The assay was performed as previously described. […] (gifts from Professor Nevin Lambert, Medical College of Georgia) or 0.05 μg of GLP-1R-SmBiT and 0.05 μg of LgBiT-β-arrestin-2 (Promega) plus 0.9 μg of pcDNA3.1 for 24 h. The cells were detached with EDTA, resuspended in HBSS, and furimazine (Promega) was added at a 1:50 dilution from the manufacturer's pre-prepared stock. After dispensing into 96-well white plates, a baseline read of the luminescent signals was serially recorded for 5 min using a FlexStation 3 instrument at 37 °C before the indicated concentration of ligand was added, after which the signals were repeatedly recorded for 30 min. […] Bias was calculated using two approaches. First, the log max/EC50 method was used, with the ratio of Emax to EC50 from 3-parameter fits for each ligand used to quantify agonism. After log10 transformation, responses were expressed relative to the reference agonist on a per assay basis to obtain Δlog(Emax/EC50) for each pathway. Pathway-specific values were then expressed relative to each other to obtain ΔΔlog(Emax/EC50), that is, the log bias factor. Second, a method derived from kinetic curve fitting was used. Here, kinetic responses for a single maximal agonist concentration were normalised at each time point to the vehicle response prior to curve fitting. […]
GLP-1R, sequence (P43220 24-463): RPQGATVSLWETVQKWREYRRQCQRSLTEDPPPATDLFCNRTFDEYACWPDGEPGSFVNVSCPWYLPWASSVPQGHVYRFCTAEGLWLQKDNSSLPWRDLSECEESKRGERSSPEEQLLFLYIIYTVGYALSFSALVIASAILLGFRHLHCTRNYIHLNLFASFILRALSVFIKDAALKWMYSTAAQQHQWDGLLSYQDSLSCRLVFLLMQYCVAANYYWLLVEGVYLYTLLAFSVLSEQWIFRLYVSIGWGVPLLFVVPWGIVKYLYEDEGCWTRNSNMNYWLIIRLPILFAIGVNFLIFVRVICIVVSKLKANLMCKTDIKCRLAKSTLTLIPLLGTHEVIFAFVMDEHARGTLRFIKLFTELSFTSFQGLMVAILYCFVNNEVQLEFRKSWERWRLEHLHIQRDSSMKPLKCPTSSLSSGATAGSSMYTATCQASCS

Where a SMILES comes first, the peptide text is derived from it. [ ]: non-standard residue; d: D form. Aib = CC(C)(N)C(=O)O

Broadly, the Emax is the size of the effect at its maximum, as opposed to the concentration needed. For the molecule `CC[C@H](C)[C@H](NC(=O)[C@H](Cc1ccccc1)NC(=O)[C@H](CCC(=O)O)NC(=O)[C@H](CCC(N)=O)NC(=O)[C@H](C)NC(=O)[C@H](CCCNC(=N)N)NC(=O)[C@H](CCCCN)NC(=O)[C@H](C)NC(=O)[C@H](CC(=O)O)NC(=O)[C@H](CC(C)C)NC(=O)[C@H](Cc1ccc(O)cc1)NC(=O)[C@H](CCCCN)NC(=O)[C@H](CO)NC(=O)[C@H](Cc1ccc(O)cc1)NC(=O)[C@H](CC(=O)O)NC(=O)[C@H](CO)NC(=O)[C@@H](NC(=O)[C@H](Cc1ccccc1)NC(=O)[C@@H](NC(=O)CNC(=O)[C@H](Cc1c[nH]cn1)NC(=O)C(C)(C)NC(=O)[C@@H](N)Cc1c[nH]cn1)[C@@H](C)O)[C@@H](C)O)C(=O)N[C@@H](CCC(=O)O)C(=O)N[C@@H](Cc1c[nH]c2ccccc12)C(=O)N[C@@H](CC(C)C)C(=O)N[C@@H](CC(C)C)C(=O)N[C@@H](C)C(=O)NCC(=O)N[C@@H](Cc1c[nH]cn1)C(=O)N[C@@H](Cc1c[nH]cn1)C(=O)N[C@@H](Cc1c[nH]cn1)C(=O)N[C@@H](Cc1c[nH]cn1)C(=O)N[C@@H](Cc1c[nH]cn1)C(=O)N1CCC[C@H]1C(=O)N[C@@H](CO)C(=O)N[C@@H](Cc1c[nH]c2ccccc12)C(=O)O` [SRB103H] (H-H[Aib]HGTFTSDYSKYLDAKRAQEFIEWLLAGHHHHHPSW-OH), the “Plasma concentration 4 h after a single dose” value in series [1] was “the same”. Besides, the EC50 at human GIPR was 25.1 nM; on GLP-1R (3-parameter fit, read-out: GLP-1R mini-Gs (HEK293T) pEC50 (converted)), 79.4 nM. Further, the maximal effect (Emax) at human GIPR came out at 101 ± 5%; at GLP-1R (HEK-293T, normalised to globally fitted maximum response), 103 ± 4%.

As to `CC[C@H](C)[C@H](NC(=O)[C@H](Cc1ccccc1)NC(=O)[C@H](CCC(=O)O)NC(=O)[C@H](CCC(N)=O)NC(=O)[C@H](C)NC(=O)[C@H](CCCNC(=N)N)NC(=O)[C@H](CCCCN)NC(=O)[C@H](C)NC(=O)[C@H](CC(=O)O)NC(=O)[C@H](CC(C)C)NC(=O)[C@H](Cc1ccc(O)cc1)NC(=O)[C@H](CCCCN)NC(=O)[C@H](CO)NC(=O)[C@H](Cc1ccc(O)cc1)NC(=O)[C@H](CC(=O)O)NC(=O)[C@H](CO)NC(=O)[C@@H](NC(=O)[C@H](Cc1ccccc1)NC(=O)[C@@H](NC(=O)CNC(=O)[C@H](CCC(N)=O)NC(=O)C(C)(C)NC(=O)[C@@H](N)Cc1c[nH]cn1)[C@@H](C)O)[C@@H](C)O)C(=O)N[C@@H](CCC(=O)O)C(=O)N[C@@H](Cc1c[nH]c2ccccc12)C(=O)N[C@@H](CC(C)C)C(=O)N[C@@H](CC(C)C)C(=O)N[C@@H](C)C(=O)NCC(=O)N[C@@H](Cc1c[nH]cn1)C(=O)N[C@@H](Cc1c[nH]cn1)C(=O)N[C@@H](Cc1c[nH]cn1)C(=O)N[C@@H](Cc1c[nH]cn1)C(=O)N[C@@H](Cc1c[nH]cn1)C(=O)N1CCC[C@H]1C(=O)N[C@@H](CO)C(=O)N[C@@H](Cc1c[nH]c2ccccc12)C(=O)O` [SRB103Q] (H-H[Aib]QGTFTSDYSKYLDAKRAQEFIEWLLAGHHHHHPSW-OH), on human GIPR, the EC50 was 100 nM and the Emax worked out at 92 ± 9%.
